Columns and labels:
Type in all cases: cell-based
BGM cells = assay: Cytotoxicity test (cell morphology, trypan blue viability): non-toxic dose on BGM cells; settings: BGM cell line, 72 h
Experimental: (§1) It was carried out in accordance with the methods that were reported. In 1 mL of ethyl alcohol, 100 mg of sample was dissolved. A sample of 24 μL of 100× antibiotic–antimycotic mixture was added to 1 mL of sample to decontaminate it. Then, bi-fold dilutions were done to 100 μL of the original dissolved sample, and 100 μL of each dilution was inoculated in Hep-2, BGM, MA104, and CaCo-2 cell lines (obtained from the Holding Company for Biological Products & Vaccines VACSERA, Giza, Egypt) previously cultured in 96 multi well plates (Greiner-Bio one, Frickenhausen, Germany) to estimate the sample’s non-toxic dose. Inverted light microscope cell morphology and trypan blue dye exclusion cell viability tests were used for cytotoxicity assay.
(§2) The Hep-2, BGM, MA104, and CaCo-2 cell cultures were each seeded at a concentration of 2 × 10^5 cells/mL and grown individually in 96-well tissue culture plates (Greiner-Bio one, Frickenhausen, Germany). After an incubation period of 24 h at 37 °C in an atmosphere containing 5% (v/v) CO2, cell monolayers were confluent. At this point, the media was withdrawn from each well and replaced with 100 μL of bi-fold dilutions of the sample examined that were prepared in Dulbecco’s Modified Eagle Medium (DMEM) (GIBCO BRL, Darmstadt, Germany). For the purpose of cell controls, 100 μL of DMEM containing no samples was added. All the cultures were kept in an atmosphere with 5% (v/v) CO2 that was humidified and incubated at 37 °C for a total of 72 h. […] Morphology shifts were observed and scored.
(§3) Trypan blue dye was excluded from the experiment. […]. In 12-well tissue culture plates, Hep-2, BGM, MA104, and CaCo-2 cells (2 × 10^5 cells/mL) were cultivated (Greiner-Bio one, Frickenhausen, Germany). Following an incubation period of 24 h, 100 μL of tested sample dilutions, also known as bi-fold dilutions, were added to each well, and the results were examined in the same manner as described previously. After 72 h, the medium was removed, the cells were trypsinized, and an equal amount of an aqueous solution containing 0.4% (w/v) trypan blue dye was added. Counting the number of viable cells required phase contrast microscopes.

MA104 cells = assay: Cytotoxicity test (cell morphology, trypan blue viability): non-toxic dose on MA104 cells; settings: MA104 cell line, 72 h
Experimental: as §1, §2, §3

Hep-2 cells = assay: Cytotoxicity test (cell morphology, trypan blue viability): non-toxic dose on Hep-2 cells; settings: Hep-2 cell line, 72 h
Experimental: as §1, §2, §3

[1] = tested on: human rotavirus Wa strain; assay: Rotavirus titers by plaque assay after treatment with non-toxic doses; settings: virus 1 × 10^7 PFU/mL, Mean ± SD of three results
Experimental: The Rotavirus Wa strain, at a concentration of 1 × 10^7 PFU/mL, was mixed with non-toxic dilutions in a volume of 100 μL. At a temperature of 37 °C and 10 μg/mL of trypsin, the rotavirus stocks became infectious after 30 min. The mixture was incubated for half an hour at 37 °C. The Hep 2, BGM, and MA104 cell lines were seeded into the wells of 12 multi-well plates and then injected with 100 μL (10-fold) dilutions of the treated and untreated rotavirus Wa strain after an hour of adsorption at 37 °C in an atmosphere containing 5% CO2-water vapor without shaking. The plates were bounced at regular intervals to prevent the cells from drying out. Following the adsorption step, 1 mL of a 2× media consisting of Dulbecco’s Modified Eagle Medium, Gibco-BRL (DMEM), and 1% agarose were added to each well. The mixture of medium and agarose was given an additional 0.5 μg/mL of trypsin so that it could test for the rotavirus Wa strain. The plates were kept in an incubator with an environment containing 5% CO2 and water vapor at 37 °C. After being fixed with formalin and stained with crystal violet at a concentration of 0.4%, the plaques were counted. After that, the PFU/mL viral titers were determined.

| SMILES | Non-Toxic Doses (BGM cells) | Non-Toxic Doses (MA104 cells) | Non-Toxic Doses (Hep-2 cells) | % Reduction of Rotavirus Wa strain [1] |
| --- | --- | --- | --- | --- |
| Cn1c(=S)[nH]c2cc3ccccc3cc2c1=O [Compound 1] | 60 µg/mL | 65 µg/mL | 65 µg/mL |  |
| CCn1c(=S)[nH]c2cc3ccccc3cc2c1=O [Compound 2] | 60 µg/mL | 60 µg/mL | 60 µg/mL |  |
| O=c1c2cc3ccccc3cc2[nH]c(=S)n1Cc1ccccc1 [Compound 3] | 60 µg/mL | 75 µg/mL | 70 µg/mL |  |
| COc1cccc(CSc2nc3cc4ccccc4cc3c(=O)n2C)c1 [Compound 4] | 50 µg/mL | 55 µg/mL | 55 µg/mL |  |
| CCn1c(SCc2cccc(OC)c2)nc2cc3ccccc3cc2c1=O [Compound 5] | 55 µg/mL | 55 µg/mL | 60 µg/mL |  |
| COc1cccc(CSc2nc3cc4ccccc4cc3c(=O)n2Cc2ccccc2)c1 [Compound 6] | 65 µg/mL | 65 µg/mL | 65 µg/mL | 20% ± 4% |
| CCn1c(SCc2ccc(Cl)cc2)nc2cc3ccccc3cc2c1=O [Compound 7] | 60 µg/mL | 60 µg/mL | 60 µg/mL |  |
| O=c1c2cc3ccccc3cc2nc(SCc2ccc(Cl)cc2)n1Cc1ccccc1 [Compound 8] | 50 µg/mL | 50 µg/mL | 50 µg/mL |  |
| Cn1c(SCc2cccc(C#N)c2)nc2cc3ccccc3cc2c1=O [Compound 9] | 65 µg/mL | 75 µg/mL | 70 µg/mL |  |
| CCn1c(SCc2ccc(C#N)cc2)nc2cc3ccccc3cc2c1=O [Compound 10] | 50 µg/mL | 55 µg/mL | 50 µg/mL |  |
| N#Cc1ccc(CSc2nc3cc4ccccc4cc3c(=O)n2Cc2ccccc2)cc1 [Compound 11] | 65 µg/mL | 65 µg/mL | 65 µg/mL |  |
| CCn1c(SCCCN2C(=O)c3ccccc3C2=O)nc2cc3ccccc3cc2c1=O [Compound 12] | 25 µg/mL | 30 µg/mL | 30 µg/mL |  |
| O=C1c2ccccc2C(=O)N1CCCSc1nc2cc3ccccc3cc2c(=O)n1Cc1ccccc1 [Compound 13] | 40 µg/mL | 50 µg/mL | 45 µg/mL | 20% ± 3% |
| Cn1c(NN)nc2cc3ccccc3cc2c1=O [Compound 14] | 55 µg/mL | 60 µg/mL | 60 µg/mL |  |
| CCn1c(NN)nc2cc3ccccc3cc2c1=O [Compound 15] | 55 µg/mL | 55 µg/mL | 55 µg/mL |  |
| NNc1nc2cc3ccccc3cc2c(=O)n1Cc1ccccc1 [Compound 16] | 60 µg/mL | 60 µg/mL | 65 µg/mL |  |
